Results reported in patent US20010049369A1, “Brimonidine compositions and methods for retinal degeneration” (priority 2000, published 2001).
Where two headings read alike, the source gives them in different places.

Experiments:
[1] = test system: retinal degeneration (RP); details: patients with RP, 15,000 I.U. daily (Berson 1993); cited from earlier work
[2] = topically applied, glaucomatous patients (Lachkar 1998; Carlsson 1999); cited from earlier work
[3] = test system: photoreceptors; details: albino rats, cited from earlier work; for protection of photoreceptors from light damage: systemic administration (Wen et al., 1996)
[4] = test system: mitogen-activated protein kinase (MAPK); details: systemically administered (Peng et al., 1998); cited from earlier work
[5] = test system: cAMP; details: retina (Osborne 1991); cited from earlier work
[6] = test system: Müller cells of RPE-free eye rudiments; details: for upregulation of GFAP induced by RPE removal: brimonidine added to culture media; for glutamine synthetase (GS) immunoreactivity: brimonidine-treated RPE-free eye rudiments
Procedure: (§1) The following studies were performed on Xenopus embryos. Briefly, eye rudiments were removed from stage 33/34 Xenopus embryos. The RPE was peeled from the outer retinal surface and eyes were cultured for 3 days in Niu-Twitty (NT) medium. The same experiment was performed in NT medium containing 0.001% brimonidine. Control conditions included eye rudiments cultured with the RPE and eyes allowed to mature in vivo to an equivalent developmental stage. Retinal morphology was assessed, carefully evaluating PRs and MCs.
(§2) The culture preparation used in these studies has been previously described (Hollyfield, 1974; Lolley, 1977; Stiemke, 1994; Stiemke, 1995; and Jablonski, 1999). The handling of animals was in accordance with the Declaration of Helsinki and The Guiding Principles in the Care and Use of Animals (DHEW Publication, NIH 80-23). Human chorionic gonadotropin (Sigma Chemical Co., St. Louis, Mo.) was to induce adult Xenopus laevis to breed. The external staging system of Nieuwkoop and Faber was used to determine retinal maturity (Nieuwkoop, 1956). Embryos and isolated eyes were maintained under cyclic lighting conditions (12 hour light: 12 hour dark) in all experiments, rudimentary eyes were removed from embryos at state 33/34, just as photoreceptor outer segments are beginning to form (Stiemke, 1994). Eyes were maintained in vitro for three days at 23° C. in Niu-Twitty medium (Jacobson, 1967) after which they were fixed for subsequent analyses.
When appropriate, the overlying RPE was gently peeled away from the neuroepithelium using finely polished forceps, leaving the underlying retina exposed to the culture medium. Eye rudiments without a closely adherent RPE were cultured in Niu-Twitty media alone, Niu-Twitty containing 0.001% brimonidine. Eyes allowed to mature in vitro in the presence of an adherent RPE in Niu-Twitty medium alone were used as controls.
Any eye with an uneven surface or which had many loose cells associated with it was discarded.

[7] = test system: opsin; details: 0.0001% brimonidine in culture media
Procedure: as §1
as §2, with “Eyes were maintained in vitro for three days at 23° C. in Niu-Twitty medium (Jacobson, 1967) after which they were fixed for subsequent analyses.” left out

[8] = expected, topical administration, to be verified
Text: The intraocular concentration is likely to be inversely proportional to the surface area available for absorption. […] Once verified, the dosage of brimonidine in eyedrops will be adjusted accordingly (10:1 dilution, i.e. 0.02%) to mimic more closely the intraocular concentrations that would be reached during human application.
The intraocular concentration is likely to be inversely proportional to the surface area available for absorption. […] Once verified, the dosage of brimonidine in the eyedrops would be adjusted accordingly (predicted to be a 10:1 dilution, i.e., 0.02%) to mimic more closely the intraocular concentrations that would be reached during human application.

[9] = test system: ischemic retinal injury; details: cited from earlier work
[10] = rabbit, cited from earlier work
[11] = primate, 2% solution of brimonidine tartrate, twice daily; cited from earlier work
[12] = test system: retinal ganglion cells; details: rat, intraperitoneal administration (Yoles et al 1999); cited from earlier work
[13] = topical administration to the eye, animals and clinical trials; cited from earlier work

CCCCCCCCCCCCCCCC(=O)OC/C=C(C)/C=C/C=C(C)/C=C/C1=C(C)CCCC1(C)C [vitamin A palmitate]
progression of retinal degeneration [1]: slowed, but did not prevent, the progression of retinal degeneration

brimonidine tartrate
blood flow in ophthalmic, central retinal, nasal and temporal ciliary arteries [2]: did not affect the blood flow

COC(=O)[C@@H]1[C@H]2C[C@H]3c4[nH]c5ccccc5c4CCN3C[C@@H]2CC[C@@H]1O [yohimbine]
effect of pretreatment on the protective effect of xylazine and clonidine ([3]; pretreatment with the antagonist (Wen et al., 1996)): prevented the protective effect

Clc1cccc(Cl)c1N=C1NCCN1 [clonidine]
protection of photoreceptors from light damage [3]: protect the photoreceptors of albino rats from light damage | MAPK phosphorylation in Müller cells [4]: activate selectively and specifically | cAMP levels following stimulation with forskolin and VIP [5]: reduce cAMP levels

Cc1cccc(C)c1N=C1NCCCS1 [xylazine]
protection of photoreceptors from light damage [3]: protect the photoreceptors of albino rats from light damage | MAPK phosphorylation in Müller cells [4]: activate selectively and specifically

Brc1c(NC2=NCCN2)ccc2nccnc12 [brimonidine, 5-bromo-6-(2-imidazolidinylideneamino)-quinoxaline]
n-cadherin immunolocalization patterns ([6]; 0.0001% brimonidine, RPE removed, data not shown): preserved | upregulation of GFAP induced by RPE removal ([6]; RPE removed): virtually abolished | upregulation of GFAP induced by RPE removal ([6]; RPE removed, listed as Brimonidine): prevented the upregulation of GFAP expression | glutamine synthetase (GS) immunoreactivity [6]: well preserved | glutamine synthetase (GS) immunoreactivity ([6]; listed as Brimonidine): allows Müller cells to express glutamine synthetase in the absence of the RPE | amount of opsin/eye compared to RPE-free eyes cultured without brimonidine [7]: marked increase | intraocular concentration in mouse eye relative to primate eye [8]: approximately 10 times | ERG b-wave truncation due to ischemia ([9]; retinal ischemia): partially prevent this b-wave truncation | ischemic retinal injury ([9]; topically applied 1 hour before injury (Wheeler et al. 1999)): effective in decreasing ischemic retinal injury | intravitreal concentration reached via topical administration ([10]; 2% solution of brimonidine tartrate, twice daily): 450 nM | concentration reaching the fellow eye via the systemic circulation ([10]; topical administration to the other eye): < 15 nM | intravitreal concentration reached via topical administration [11]: 100 nM | loss of retinal ganglion cells induced by the crush [12]: effective in decreasing loss of retinal ganglion cells | intraocular pressure (IOP) [13]: decrease in intraocular pressure

Brc1c(NC2=NCCN2)ccc2nccnc12 [UK 14304]
cAMP levels following stimulation with forskolin and VIP [5]: reduce cAMP levels
